For experiment [1], the target named is T1, VEGFR/KDR (Homo sapiens, UniProt P35968).
T1 construct: made in house; host or cells: Sf9 cells (Spodoptera frugiperda), baculovirus
The experiment in a line: VEGFR/KDR kinase inhibition, DELFIA assay. Type of experiment: biochemical. The settings on record: ATP 0.6 uM (2x Km), enzyme 5 nM. A digest of the protocol:
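DELFIA time-resolved fluorescence readout using Europium-tagged anti-phosphotyrosine antibody after EDTA stop. Kinase reaction on plate-bound poly(Glu4,Tyr) ran 10-30 min at 30° C with 5 nM enzyme and 0.6 uM ATP (2× Km), following 4 min on-ice pre-incubation with compound; IC50 over a concentration range.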

Experiment [2] concerns CNV progression. The experiment is described as follows: In vivo choroidal neovascularization (CNV) model, laser-induced, intravitreal injection. Details: species or system Male Brown-Norway rats. The settings on record: rat; for inhibition in vivo at 3 nmol/eye / inhibition in vivo at 10 nmol/eye: 240 h; for inhibition in vivo at 3 nmol/eye: 3 nmol/eye injected on Day 3, CNV area on Day 10, vs vehicle. The text has this:
This test measures the capacity of compounds to inhibit CNV progression. CNV is the main cause of severe vision loss in patients suffering from age-related macular degeneration (AMD).
Male Brown-Norway rats (Japan Clea Co., Ltd.) were used in these studies.
Rats were anesthetized by intraperitoneal injection of pentobarbital, and the right pupil was dilated with 0.5% tropicamide and 0.5% phenylephrine hydrochloride. The right eye received 6 laser burns between retinal vessels using a slit lamp delivery system of Green laser Photocoagulator (Nidex Inc., Japan), and microscope slide glass with Healon™ (AMO Inc) used as a contact lens. The laser power was 100 or 200 mW for 0.1 second and spot diameter was 100 μm. At the time of laser burn, bubble production was observed, which is an indication of rupture of Bruch's membrane which is important for CNV generation.
Rats were divided into the groups based on their body weight using SAS software (SAS institute Japan, R8.1) after laser irradiation (Day 0). After animals were anesthetized, and the right pupil dilated (as above mentioned), the right eye of the animal received the compound or vehicle by an injection (10 μL/eye) at doses of 10 or 3 nmol/eye on Day 3. The compounds were dissolved or suspended in CBS, PBS, or other adequate vehicles before injection.
On Day 10, the animals were anesthetized with ether, and high molecular weight fluorescein isothiocyanate (FITC)-dextran (SIGMA, 2×10^6 MW) was injected via a tail vein (20 mg/rat). About 30 min after FITC-dextran injection, animals were euthanized by ether or carbon dioxide, and the eyes were removed and fixed with 10% formaline neutral buffer solution. After over 1 hour of fixation, RPE-choroid-sclera flat mounts were obtained by removing cornea, lens and retina from the eyeballs. The flat mounts were mounted in 50% glycerol on a microscope slide, and the portion burned by laser was photographed using a fluorescence microscope (Nikon Corporation, excitation filter:465-495 nm, absorption filter:515-555 nm). The CNV area was obtained by measurement of hyper-fluorescence area observed on the photograph using Scion image.
The average CNV area of 6 burns was used as an individual value of CNV area, and the average CNV area of compound treated group was compared with that of the vehicle-treated group.

The mark [3] stands for this setting: 10 nmol/eye injected on Day 3, CNV area on Day 10, vs vehicle.

T1 sequence (P35968 806-1356): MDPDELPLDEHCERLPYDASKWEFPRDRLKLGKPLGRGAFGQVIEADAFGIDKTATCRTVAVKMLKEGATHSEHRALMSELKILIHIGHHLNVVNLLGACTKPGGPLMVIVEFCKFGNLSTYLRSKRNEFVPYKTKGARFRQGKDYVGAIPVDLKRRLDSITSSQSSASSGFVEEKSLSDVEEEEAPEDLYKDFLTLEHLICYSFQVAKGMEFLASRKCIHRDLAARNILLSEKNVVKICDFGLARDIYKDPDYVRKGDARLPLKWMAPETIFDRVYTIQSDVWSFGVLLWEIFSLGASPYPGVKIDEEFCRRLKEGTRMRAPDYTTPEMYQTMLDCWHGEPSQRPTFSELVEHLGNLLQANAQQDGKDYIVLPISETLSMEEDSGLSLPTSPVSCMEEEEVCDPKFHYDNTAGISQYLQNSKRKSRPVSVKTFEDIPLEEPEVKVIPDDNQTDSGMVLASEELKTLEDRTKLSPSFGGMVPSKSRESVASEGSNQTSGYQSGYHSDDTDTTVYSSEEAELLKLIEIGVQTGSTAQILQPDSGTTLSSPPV

Broadly, the IC50 is the concentration at which inhibition is half-maximal. For orientation: inhibition in vivo means the percentage by which the read-out fell short of the control. A lower inhibition in vivo goes with little suppression. Consider `CC(C)N(CCN1CCN(C(=O)c2ccc(-c3cc4nccc(Oc5ccc(NC(=O)NC6CC6)cc5F)c4s3)nc2)CC1)C(C)C` [Compound 230, 1-cyclopropyl-3-(4-(2-(5-(4-(2-(diisopropylamino)ethyl)piperazine-1-carbonyl)pyridin-2-yl)thieno[3,2-b]pyridin-7-yloxy)-3-fluorophenyl)urea], for which the 50% inhibitory concentration (IC50) in experiment [1] is under 0.05 µM. Further, the inhibition in vivo at 3 nmol/eye in experiment [2] is 40 to 60%.
As to `COCCOCCOCCOCCN(Cc1ccc(-c2cc3nccc(Oc4ccc(NC(=O)NC5CC5)cc4F)c3s2)nc1)C(=O)CO` [Compound 45], in experiment [1], the IC50 is under 0.05 µM. For the same molecule, the inhibition in vivo at 10 nmol/eye in experiment [2] (setting [3]) was in the range of 40 to 60%.
The like results for `O=C(Nc1ccc(Oc2ccnc3cc(-c4ccc(CN5CCN(CCO)CC5)cn4)sc23)c(F)c1)NC1CC1` [Compound 55, 1-cyclopropyl-3-(3-fluoro-4-(2-(5-((4-(2-hydroxyethyl)piperazin-l-yl)methyl)pyridin-2-yl)thieno[3,2-b]-pyridin-7-yloxy)phenyl)urea] were, in that order, under 0.05 µM and 40 to 60%.
In the case of `COCCN(Cc1ccc(-c2cc3nccc(Oc4ccc(NC(=O)NC5CC5)cc4F)c3s2)nc1)C(N)=O` [Compound 5, N-[3-((6-(7-(4-(3-cyclopropylureido)-2-fluorophenoxy)thieno[3,2-b]pyridin-2-yl)pyridin-3-yl)methyl)]-N-[3-(2-methoxyethyl)]urea], the IC50 in experiment [1] was under 0.05 µM. Also, the inhibition in vivo at 10 nmol/eye in experiment [2] (setting [3]) was 40 to 60%.
The molecule `O=C(Nc1ccc(Oc2ccnc3cc(-c4ccc(CN5CCNCC5)cn4)sc23)c(F)c1)NC1CC1` [Compound 49, 1-cyclopropyl-3-(3-fluoro-4-(2-(5-(piperazin-1-ylmethyl)pyridin-2-yl)thieno[3,2-b]-pyridin-7-yloxy)phenyl)urea] came in with an IC50 in experiment [1] of under 0.05 µM. Also, the inhibition in vivo at 10 nmol/eye in experiment [2] (setting [3]) is at least 60%.
In turn, `CNC(=O)N(CCOC)Cc1ccc(-c2cc3nccc(Oc4ccc(NC(=O)NC5CC5)cc4F)c3s2)nc1` [Compound 3, N-[3-((6-(7-(4-(3-cyclopropylureido)-2-fluorophenoxy)thieno[3,2-b]pyridin-2-yl)pyridin-3-yl)methyl)]-N-(1-methyl)-N-[3-(2-methoxyethyl)]urea] returned a 50% inhibitory concentration (IC50) in experiment [1] of under 0.05 µM. In addition, the “Inhibition of CNV progression” value in experiment [2] (setting [3]) is “A (greater than or equal to 60% inhibition)”.
Consider `COCCN(Cc1ccc(-c2cc3nccc(Oc4ccc(NC(=O)NC5CC5)cc4F)c3s2)nc1)C(=O)CS(C)(=O)=O` [Compound 90, N-((6-(7-(4-(3-cyclopropylureido)-2-fluorophenoxy)thieno[3,2-b]pyridin-2-yl)pyridin-3-yl)methyl)-N-(2-methoxyethyl)-2-(methylsulfonyl)acetamide], for which the IC50 in experiment [1] was under 0.05 µM. The same molecule had an inhibition in vivo at 10 nmol/eye in experiment [2] (setting [3]) of at least 60%.
The like results for `CN1CCN(Cc2ccc(-c3cc4nccc(Oc5ccc(NC(=O)NC6CC6)cc5F)c4s3)nc2)CC1` [Compound 51, 1-cyclopropyl-3-(3-fluoro-4-(2-(5-((4-methylpiperazin-1-yl)methyl)pyridin-2-yl)thieno[3,2-b]-pyridin-7-yloxy)phenyl)urea] were, in that order, under 0.05 µM and at least 60%.
In experiment [1], `CN1CCN(CCn2cc(-c3cc4nccc(Oc5ccc(NC(=O)NC6CC6)cc5F)c4s3)cn2)CC1` [Compound 154, 1-cyclopropyl-3-(3-fluoro-4-(2-(1-(2-(4-methylpiperazin-1-yl)ethyl)-1H-pyrazol-4-yl)thieno[3,2-b]pyridin-7-yloxy)phenyl)urea] registered an IC50 of under 0.05 µM. The same molecule had an inhibition in vivo at 3 nmol/eye in experiment [2] of 40 to 60%.

The values are drawn from patent US8906852B2 (MethylGene Inc., priority 2010, dated 2014).
